{
  "source": "paper PMC10772347",
  "about": "(Cell Reports Medicine, 2023)",
  "key": {"NEK7 [1]": {"target": "NEK7 (Mus musculus, UniProt Q9ES74)", "sequence (Q9ES74 whole entry)": "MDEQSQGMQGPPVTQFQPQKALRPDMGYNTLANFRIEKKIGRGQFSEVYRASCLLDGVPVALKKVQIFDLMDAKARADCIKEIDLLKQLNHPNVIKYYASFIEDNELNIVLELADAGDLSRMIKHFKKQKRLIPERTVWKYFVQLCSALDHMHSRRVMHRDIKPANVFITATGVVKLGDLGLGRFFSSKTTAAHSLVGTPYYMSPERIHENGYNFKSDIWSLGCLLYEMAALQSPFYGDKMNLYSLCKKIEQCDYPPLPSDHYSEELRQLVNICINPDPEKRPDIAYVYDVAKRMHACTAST", "experiment": "CETSA in BMDMs and DARTS in BMDM lysate", "assay_type": "cell-based"}, "NEK7 [2]": {"target": "NEK7 (Homo sapiens, UniProt Q8TDX7)", "sequence (Q8TDX7 whole entry, looked up)": "as the sequence (Q9ES74 whole entry) above, with T14P, S52A, D150E, I273M, I285V, A286T, T302S counted along it", "experiment": "DARTS", "assay_type": "cell-based"}},
  "data": [
    {"smiles": "CN1CCN(c2ccc(C(=O)Nc3n[nH]c4ccc(Cc5cc(F)cc(F)c5)cc34)c(NC3CCOCC3)c2)CC1", "note": "[ENB, entrectinib]", "values": [
      {"measurement": "CETSA in BMDMs and DARTS in BMDM lysate (200 uM ENB)", "setting": "NEK7 [1]", "value": "ENB significantly enhanced the thermal stability of NEK7 even at higher temperatures compared with the DMSO-treated group"},
      {"measurement": "DARTS (pronase) in lysate of HEK293T cells overexpressing WT or mutant NEK7 (200)", "setting": "NEK7 [2]", "value": "R121A, but not I40A mutation, abolished NEK7 binding to ENB (Figure 4D), suggesting that ENB binds to R121 of NEK7"}
    ]}
  ]
}
